Source: US10125134B2 (Mirati Therapeutics, Inc., priority 2016, dated 2018)
Where two headings read alike, the source gives them in different places.

What was measured:
[1] = target: KRas G12C (Homo sapiens, UniProt P01116, C118S/C51S/C80L/G12C); experiment: KRas G12C Modification Assay (LCMS detection of covalent adduct); type: binding; conditions: normalized percent of control; tested at 5 μM concentration for 3 hours
How it was run: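 Cys-light KRas G12C mutant protein incubated with compound in K-Ras assay buffer, reactions quenched at set time points with 25 mM acetic acid and analysed by intact-protein LC/MS on a C-3 column. Deconvoluted mass heights expressed as percent of control (POC) relative to compound-free protein.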

[2] = system: NCI-H358 cells (express KRas G12C), Phospho-ERK; experiment: Cellular inhibition of KRas G12C: Phospho-ERK in NCI-H358 cells; type: cell-based; conditions: pERK(Thr202/Tyr204) normalized with GAPDH, NCI-H358 cells, 3 hours, read-out: IC50
How it was run: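 IC50 derived by 4-parameter fit of GAPDH-normalized pERK(Thr202/Tyr204) signal, as percent of DMSO control. Signal came from in-cell immunodetection with infrared secondaries after 3 h compound exposure of KRas G12C NCI-H358 cells at 0.5% DMSO.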

| Structure (SMILES) | POC [1] | IC50 ([2]; Homo sapiens, NCI-H358, 3 h) [µM] | IC50 [2] [µM] |
| --- | --- | --- | --- |
| CC#CC(=O)N1CCN(c2nc(OC[C@@H]3CCCN3C)nc3c2CCN(c2cccc4cccc(Cl)c24)C3)C[C@@H]1CC#N [Example 391, 2-((S)-1-(but-2-ynoyl)-4-(7-(8-chloronaphthalen-1-yl)-2-(((S)-1-methylpyrrolidin-2-yl)methoxy)-5,6,7,8-tetrahydropyrido[3,4-d]pyrimidin-4-yl)piperazin-2-yl)acetonitrile] | C (“C”>50% POC) | 0.0001 to 1 | – |
| C=CC(=O)N1CCN(c2nc(OC[C@@H]3CCCN3C)nc3c2CCN(c2cccc(C)c2C)C3)C[C@@H]1CC#N [Example 393, 2-((S)-1-acryloyl-4-(7-(2,3-dimethylphenyl)-2-(((S)-1-methylpyrrolidin-2-yl)methoxy)-5,6,7,8-tetrahydropyrido[3,4-d]pyrimidin-4-yl)piperazin-2-yl)acetonitrile] | C (“C”>50% POC) | 0.0001 to 1 | – |
| C=CC(=O)N1CCN(c2nc(OC[C@]3(C)CCCN3C)nc3c2CCN(c2cccc4ccccc24)C3)CC1CC#N (stereo partly drawn) [Example 394, 2-(1-acryloyl-4-(2-(((S)-1,2-dimethylpyrrolidin-2-yl)methoxy)-7-(naphthalen-1-yl)-5,6,7,8-tetrahydropyrido[3,4-d]pyrimidin-4-yl)piperazin-2-yl)acetonitrile] | C (“C”>50% POC) | 0.0001 to 1 | – |
| C=CC(=O)N1CCN(c2nc(OC[C@@H]3CCCN3CC3CC3)nc3c2CCN(c2cccc4ccccc24)C3)CC1CC#N (stereo partly drawn) [Example 395, 2-(1-acryloyl-4-(2-(((S)-1-(cyclopropylmethyl)pyrrolidin-2-yl)methoxy)-7-(naphthalen-1-yl)-5,6,7,8-tetrahydropyrido[3,4-d]pyrimidin-4-yl)piperazin-2-yl)acetonitrile] | C (“C”>50% POC) | 0.0001 to 1 | – |
| C=CC(=O)N1CCN(c2nc(OCC(C)(C)N(C)C)nc3c2CCN(c2cccc4ccccc24)C3)CC1CC#N (centres unmarked) [Example 396, 2-(1-acryloyl-4-(2-(2-(dimethylamino)-2-methylpropoxy)-7-(naphthalen-1-yl)-5,6,7,8-tetrahydropyrido[3,4-d]pyrimidin-4-yl)piperazin-2-yl)acetonitrile] | C (“C”>50% POC) | – | 0.0001 to 1 |
| C=CC(=O)N1CCN(c2nc(OC[C@@H]3CCCN3CC(=O)N(C)C)nc3c2CCN(c2cccc4ccccc24)C3)CC1CC#N (stereo partly drawn) [Example 397, 2-((2S)-2-(((4-(4-acryloyl-3-(cyanomethyl)piperazin-1-yl)-7-(naphthalen-1-yl)-5,6,7,8-tetrahydropyrido[3,4-d]pyrimidin-2-yl)oxy)methyl)pyrrolidin-1-yl)-N,N-dimethylacetamide] | C (“C”>50% POC) | 0.0001 to 1 | – |
| C=CC(=O)N1CCN(c2nc(OC[C@@H]3CCCN3CC)nc3c2CCN(c2cccc4ccccc24)C3)C[C@@H]1CC#N [Example 399, 2-((S)-1-acryloyl-4-(2-(((S)-1-ethylpyrrolidin-2-yl)methoxy)-7-(naphthalen-1-yl)-5,6,7,8-tetrahydropyrido[3,4-d]pyrimidin-4-yl)piperazin-2-yl)acetonitrile] | C (“C”>50% POC) | 0.0001 to 1 | – |
| CCN1CCC[C@H]1COc1nc2c(c(N3CCN(C(=O)/C=C/CN(C)C)[C@@H](CC#N)C3)n1)CCN(c1cccc3ccccc13)C2 [Example 400, 2-((S)-1-((E)-4-(dimethylamino)but-2-enoyl)-4-(2-(((S)-1-ethylpyrrolidin-2-yl)methoxy)-7-(naphthalen-1-yl)-5,6,7,8-tetrahydropyrido[3,4-d]pyrimidin-4-yl)piperazin-2-yl)acetonitrile] | C (“C”>50% POC) | 0.0001 to 1 | – |
| C=CC(=O)N1CCN(c2nc(OC[C@@H]3CCCN3CC(=O)N(C)C)nc3c2CCN(c2cccc4ccccc24)C3)C[C@@H]1CC#N [Example 401, 2-((S)-2-(((4-((S)-4-acryloyl-3-(cyanomethyl)piperazin-1-yl)-7-(naphthalen-1-yl)-5,6,7,8-tetrahydropyrido[3,4-d]pyrimidin-2-yl)oxy)methyl)pyrrolidin-1-yl)-N,N-dimethylacetamide] | C (“C”>50% POC) | 0.0001 to 1 | – |
| C=CC(=O)N1CCN(c2nc(N3CC[C@H](N(C)C)C3)nc3c2CCN(c2cccc4ccccc24)C3)C[C@@H]1CC#N [Example 402] | C (“C”>50% POC) | 0.0001 to 1 | – |
| Cc1cccc(N2CCc3c(nc(OC[C@@H]4CCCN4C)nc3N3CCN(C(=O)/C=C/CN(C)C)[C@@H](CC#N)C3)C2)c1C [Example 403, 2-((S)-1-((E)-4-(dimethylamino)but-2-enoyl)-4-(7-(2,3-dimethylphenyl)-2-(((S)-1-methylpyrrolidin-2-yl)methoxy)-5,6,7,8-tetrahydropyrido[3,4-d]pyrimidin-4-yl)piperazin-2-yl)acetonitrile] | C (“C”>50% POC) | 0.0001 to 1 | – |
| C=CC(=O)N1CCN(c2nc(N3CCCC(N(C)C)C3)nc3c2CCN(c2cccc4ccccc24)C3)C[C@@H]1CC#N (stereo partly drawn) [Example 404, 2-((2S)-1-acryloyl-4-(2-(3-(dimethylamino)piperidin-1-yl)-7-(naphthalen-1-yl)-5,6,7,8-tetrahydropyrido[3,4-d]pyrimidin-4-yl)piperazin-2-yl)acetonitrile] | C (“C”>50% POC) | 0.0001 to 1 | – |
| C=CC(=O)N1CCN(c2nc(OC[C@@H]3CCCN3C)nc3c2CCN(c2cccc(F)c2Cl)C3)C[C@@H]1CC#N [Example 405, 2-((S)-1-acryloyl-4-(7-(2-chloro-3-fluorophenyl)-2-(((S)-1-methylpyrrolidin-2-yl)methoxy)-5,6,7,8-tetrahydropyrido[3,4-d]pyrimidin-4-yl)piperazin-2-yl)acetonitrile] | C (“C”>50% POC) | 0.0001 to 1 | – |
| C=CC(=O)N1CCN(c2nc(OC[C@@H]3CCCN3C)nc3c2CCN(c2cccc(F)c2F)C3)C[C@@H]1CC#N [Example 406, 2-((S)-1-acryloyl-4-(7-(2,3-difluorophenyl)-2-(((S)-1-methylpyrrolidin-2-yl)methoxy)-5,6,7,8-tetrahydropyrido[3,4-d]pyrimidin-4-yl)piperazin-2-yl)acetonitrile] | C (“C”>50% POC) | > 1 | – |
| C=CC(=O)N1CCN(c2nc(NC[C@@H]3CCCN3C)nc3c2CCN(c2cccc4ccccc24)C3)C[C@@H]1CC#N [Example 407, 2-((S)-1-acryloyl-4-(2-((((S)-1-methylpyrrolidin-2-yl)methyl)amino)-7-(naphthalen-1-yl)-5,6,7,8-tetrahydropyrido[3,4-d]pyrimidin-4-yl)piperazin-2-yl)acetonitrile] | C (“C”>50% POC) | > 1 | – |
| C=CC(=O)N1CCN(c2nc(OCCN3CCCCC3)nc3c2CCN(c2cccc4ccccc24)C3)C[C@@H]1CC#N [Example 408, (S)-2-(1-acryloyl-4-(7-(naphthalen-1-yl)-2-(2-(piperidin-1-yl)ethoxy)-5,6,7,8-tetrahydropyrido[3,4-d]pyrimidin-4-yl)piperazin-2-yl)acetonitrile] | C (“C”>50% POC) | 0.0001 to 1 | – |
| C=CC(=O)N1CCN(c2nc(OC[C@@H]3CCN(C)C3)nc3c2CCN(c2cccc4ccccc24)C3)C[C@@H]1CC#N [Example 409, 2-((S)-1-acryloyl-4-(2-(((R)-1-methylpyrrolidin-3-yl)methoxy)-7-(naphthalen-1-yl)-5,6,7,8-tetrahydropyrido[3,4-d]pyrimidin-4-yl)piperazin-2-yl)acetonitrile] | C (“C”>50% POC) | 0.0001 to 1 | – |
| C=CC(=O)N1CCN(c2nc(OC[C@@H]3CCCN3C)nc3c2CCN(c2cccc(F)c2C)C3)CC1CC#N (stereo partly drawn) [Example 410, 2-(1-acryloyl-4-(7-(3-fluoro-2-methylphenyl)-2-(((S)-1-methylpyrrolidin-2-yl)methoxy)-5,6,7,8-tetrahydropyrido[3,4-d]pyrimidin-4-yl)piperazin-2-yl)acetonitrile] | C (“C”>50% POC) | 0.0001 to 1 | – |
| C=CC(=O)N1CCN(c2nc(OC[C@@H]3CCCN3C)nc3c2CCN(c2c(F)cccc2C(F)(F)F)C3)CC1CC#N (stereo partly drawn) [Example 411, 2-(1-acryloyl-4-(7-(2-fluoro-6-(trifluoromethyl)phenyl)-2-(((S)-1-methylpyrrolidin-2-yl)methoxy)-5,6,7,8-tetrahydropyrido[3,4-d]pyrimidin-4-yl)piperazin-2-yl)acetonitrile] | C (“C”>50% POC) | – | 0.0001 to 1 |
| C=CC(=O)N1CCN(c2nc(OC[C@@H]3CCCN3C)nc3c2CCN(c2ccc(F)cc2C(F)(F)F)C3)CC1CC#N (stereo partly drawn) [Example 412, 2-(1-acryloyl-4-(7-(4-fluoro-2-(trifluoromethyl)phenyl)-2-(((S)-1-methylpyrrolidin-2-yl)methoxy)-5,6,7,8-tetrahydropyrido[3,4-d]pyrimidin-4-yl)piperazin-2-yl)acetonitrile] | C (“C”>50% POC) | – | 0.0001 to 1 |
| C=CC(=O)N1CCN(c2nc(OC[C@@H]3CCCN3C)nc3c2CCN(c2cccc(Cl)c2C(F)(F)F)C3)CC1CC#N (stereo partly drawn) [Example 413, 2-(1-acryloyl-4-(7-(3-chloro-2-(trifluoromethyl)phenyl)-2-(((S)-1-methylpyrrolidin-2-yl)methoxy)-5,6,7,8-tetrahydropyrido[3,4-d]pyrimidin-4-yl)piperazin-2-yl)acetonitrile] | C (“C”>50% POC) | – | 0.0001 to 1 |
| C=CC(=O)N1CCN(c2nc(OC[C@H]3C[C@H](O)CN3C)nc3c2CCN(c2cccc(F)c2C(F)(F)F)C3)CC1CC#N (stereo partly drawn) [Example 414, 2-(1-acryloyl-4-(7-(3-fluoro-2-(trifluoromethyl)phenyl)-2-(((2R,4S)-4-hydroxy-1-methylpyrrolidin-2-yl)methoxy)-5,6,7,8-tetrahydropyrido[3,4-d]pyrimidin-4-yl)piperazin-2-yl)acetonitrile] | C (“C”>50% POC) | 0.0001 to 1 | – |
